Test results taken from patent US10253081B2, “Glucagon analogues” (Zealand Pharma A/S, priority 2012, dated 2019).
Where two headings read alike, the source gives them in different places. *1 amine or outer side, *2 acyl side, *3 side chain or, on linkers, in order; H or OH if unused. Where a SMILES comes first, the peptide text is derived from it. Side-chain parts run from the residue outwards. [ ]: non-standard residue; d: D form. The star is where a group is joined. γGlu = O=C(O)[C@H](CCC(=O)[*:2])N[*:1]; Palmitoyl = CCCCCCCCCCCCCCCC(=O)*; Aib = CC(C)(N)C(=O)O

What was measured:
[1] = target: T1, human glucagon receptor (Glucagon-R) (Homo sapiens, UniProt P47871); test: Glucagon receptor efficacy assay (cAMP AlphaScreen, CHO cells); assay type: cell-based; settings: Table 1A; CHO cells expressing human Glucagon-R, cAMP; read-out: EC50 hGCGR CHO-K1
T1 construct: expressed in transfected cells
Summary of the method: (§1)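 Stably transfected CHO clones expressing human GLP-1R or glucagon receptor were treated with increasing peptide concentrations for 15 min at room temperature in KRBH containing 0.1 mM IBMX. After lysis, cAMP was quantified by AlphaScreen; EC50 and efficacy relative to GLP-1 or glucagon reference came from curve fitting.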

[2] = Oral glucose tolerance test (OGTT); assay type: in vivo, C57BL/6J mice; settings: blood glucose AUC 0-120 min, 10 nmol/kg s.c. 4 h before oral glucose 2 g/kg
Experimental: Male C57BL/6J mice were fasted for 10 h before they received an oral glucose bolus of 2 g/kg body weight. Peptides were dissolved in saline buffered with 25 mM phosphate and administered at a dose of 10 nmol/kg body weight by subcutaneous injection 4 h before the glucose bolus. Control animals received a vehicle injection only. Group size was 7 animals per group. A pre-dose and a pre-glucose (0 min) blood sample were obtained by tail bleeding and blood glucose was measured with a glucometer. Additional samples of tail blood for measuring blood glucose were obtained 15 min, 30 min, 60 min, 90 min and 120 min after the glucose challenge. […] Calculation of AUC was done by the trapezoidal rule without baseline correction. The data are presented as mean±S.E.M. Statistical comparisons were conducted by one-way ANOVA followed by Tukey's post test. Vehicle alone was used as a control.

[3] = target: T2, human glucagon-like peptide 1 receptor (GLP-1R) (Homo sapiens, UniProt P43220); test: GLP-1 receptor efficacy assay (cAMP AlphaScreen, CHO cells); assay type: cell-based; settings: Table 1A
T2 construct: expressed in transfected cells
Summary of the method: as §1

[4] = Pharmacokinetic parameters after subcutaneous and intravenous administration to mice; assay type: in vivo; settings: male, mouse, plasma, 20 nmol/kg, C57Bl/6J mice; for half-life: read-out: Terminal half life (converted)
Experimental: Pharmacokinetic parameters of the test compounds were determined after subcutaneous and intravenous administration to C57Bl/6J mice.
8 week old male C57Bl/6J mice were obtained from Taconic (Denmark) weighing approximately 20-25 g at time of arrival at the test facility. The mice were caged in European standard cages type III with light cycle of 12-hour dark and 12-hour light (lights on 06.00). Both diet, Altromin 1324 (Altromin, Germany), and water was administered ad libitum during the whole experimental period. The 8-11 week animals were imported to the laboratory at least 7 days before the start up of the experimental procedure in order to assure proper acclimatization. After sampling the mice were euthanized by cervical dislocation.
The compounds were first dissolved in 0.096% aqueous ammonia to a nominal concentration of 2 mg/ml, and then diluted to the desired dosing strength (4 μM) in sterile PBS containing 25 mM phosphate buffer, pH 7.4. Subcutaneous and intravenous injections corresponding to 20 nmol/kg were given. The GLP-1-glucagon dual agonists were administered for subcutaneous dosing in the neck region and via a lateral tail vein for intravenous dosing.
Blood samples (250 μl) were collected from the periorbital plexus at time points 0.5, 2, 4, 6, 12, 16, 20, 24 h for subcutaneous and 10, 30 min, 3, 6, 12, 18, 24 h for intravenous administration into ice-chilled K3EDTA tubes and centrifuged for 5 minutes at 4° C. within 20 minutes of sampling. Plasma (>100 μl) was separated to ice-chilled Micronic tubes, immediately frozen, and kept at −70° C. until analysed for plasma concentration for the respective GLP-1-glucagon compound using LC-MS/MS. Individual plasma concentration-time profiles were analysed by a non-compartmental approach in WinNonLin v6.3 (Pharsight inc, Mountain View, Calif., USA), and the resulting pharmacokinetic parameters determined.

[5] = target: T3, endogenous GLP-1 receptors (Mus musculus, UniProt O35659); test: Agonistic activity on endogenous GLP-1 receptor (cAMP, murine insulinoma cell line); assay type: cell-based; settings: intracellular cAMP, 15 minutes at 26° C.; read-out: EC50 GLP-1R (murine insulinoma cells)
T3 construct: Agonistic activity of the test compounds on endogenous GLP-1 receptors; endogenous in cells
T3 sequence (O35659 22-463): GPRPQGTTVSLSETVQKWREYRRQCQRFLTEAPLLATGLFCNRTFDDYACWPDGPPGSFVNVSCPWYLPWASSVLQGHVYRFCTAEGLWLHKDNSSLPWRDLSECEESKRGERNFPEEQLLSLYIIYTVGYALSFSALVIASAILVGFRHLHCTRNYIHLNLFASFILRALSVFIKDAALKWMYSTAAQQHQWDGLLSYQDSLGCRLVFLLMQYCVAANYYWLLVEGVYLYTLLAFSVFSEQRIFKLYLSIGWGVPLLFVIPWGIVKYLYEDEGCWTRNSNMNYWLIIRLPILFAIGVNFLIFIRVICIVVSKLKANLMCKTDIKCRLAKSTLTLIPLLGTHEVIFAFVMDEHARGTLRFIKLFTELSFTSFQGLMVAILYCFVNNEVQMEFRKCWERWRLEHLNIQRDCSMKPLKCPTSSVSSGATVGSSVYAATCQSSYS
Summary of the method: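 Murine insulinoma cells were exposed 15 min at 26° C in KRBH with 0.1% DMSO to compound or GLP-1 ([…]), then cAMP was measured by AlphaScreen against a standard curve, in quadruplicate. pEC50 came from curve fits; % CTL was normalised to the maximal GLP-1 cAMP response.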

T2 sequence (P43220 24-463): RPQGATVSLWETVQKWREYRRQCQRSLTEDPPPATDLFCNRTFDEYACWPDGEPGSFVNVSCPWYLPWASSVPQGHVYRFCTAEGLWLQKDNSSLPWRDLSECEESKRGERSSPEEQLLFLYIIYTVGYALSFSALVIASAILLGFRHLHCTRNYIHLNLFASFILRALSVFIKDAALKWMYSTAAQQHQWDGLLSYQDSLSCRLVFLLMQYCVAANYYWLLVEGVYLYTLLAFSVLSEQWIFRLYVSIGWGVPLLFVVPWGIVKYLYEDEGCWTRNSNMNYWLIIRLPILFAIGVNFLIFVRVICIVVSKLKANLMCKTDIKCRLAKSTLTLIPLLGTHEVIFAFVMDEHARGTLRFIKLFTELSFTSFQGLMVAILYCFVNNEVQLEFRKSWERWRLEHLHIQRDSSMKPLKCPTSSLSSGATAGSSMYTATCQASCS
T1 sequence (P47871 26-477): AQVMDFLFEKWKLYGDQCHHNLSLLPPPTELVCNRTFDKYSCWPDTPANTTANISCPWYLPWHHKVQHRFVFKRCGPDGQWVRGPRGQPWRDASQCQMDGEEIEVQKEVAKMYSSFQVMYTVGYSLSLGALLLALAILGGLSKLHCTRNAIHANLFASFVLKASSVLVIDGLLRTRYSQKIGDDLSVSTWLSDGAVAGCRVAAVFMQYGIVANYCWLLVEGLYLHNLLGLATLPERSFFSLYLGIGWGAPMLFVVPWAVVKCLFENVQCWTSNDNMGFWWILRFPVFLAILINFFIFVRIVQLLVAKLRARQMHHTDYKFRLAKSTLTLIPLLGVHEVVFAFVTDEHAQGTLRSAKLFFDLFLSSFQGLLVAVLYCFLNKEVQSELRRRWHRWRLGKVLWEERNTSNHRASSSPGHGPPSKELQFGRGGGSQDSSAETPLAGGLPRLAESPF

- EC50 [1]: 0.61 nM
- EC50 ([3]; CHO cells expressing human GLP-1-R, cAMP, read-out: EC50 hGLP-1R CHO-K1): 0.64 nM
- Ratio GLP-1/Glucagon ([3]; EC50 [GLP-1R]/EC50 [Glucagon-R]): 1.05
- clearance ([4]; IV): 0.157 mL/min/kg
- half-life ([4]; IV): 3.9 h
- Tmax ([4]; SC): 4 h
- bioavailability ([4]; SC): 64%
- MRT ([4]; SC, read-out: Mean Residence Time): 12.5 h
- half-life ([4]; SC): 5 h
- EC50 [5]: 1.01 nM
Compound: CCCCCCCCCCCCCCCC(=O)N[C@@H](CCC(=O)NCCCC[C@H](NC(=O)[C@H](CCC(=O)O)NC(=O)[C@H](CC(=O)O)NC(=O)[C@H](CC(C)C)NC(=O)[C@H](Cc1ccc(O)cc1)NC(=O)[C@H](CCCCN)NC(=O)[C@H](CO)NC(=O)[C@H](Cc1ccc(O)cc1)NC(=O)[C@H](CC(=O)O)NC(=O)[C@H](CO)NC(=O)[C@@H](NC(=O)[C@H](Cc1ccccc1)NC(=O)[C@@H](NC(=O)CNC(=O)[C@H](CCC(N)=O)NC(=O)C(C)(C)NC(=O)[C@@H](N)Cc1c[nH]cn1)[C@@H](C)O)[C@@H](C)O)C(=O)N[C@@H](CCCNC(=N)N)C(=O)N[C@@H](C)C(=O)N[C@@H](CCCCN)C(=O)N[C@@H](CC(=O)O)C(=O)N[C@@H](Cc1ccccc1)C(=O)N[C@H](C(=O)N[C@@H](CCC(=O)O)C(=O)N[C@@H](Cc1c[nH]c2ccccc12)C(=O)N[C@@H](CC(C)C)C(=O)N[C@@H](CC(C)C)C(=O)N[C@@H](CO)C(=O)O)[C@@H](C)CC)C(=O)O [Compound 11, H-H-Aib-QGTFTSDYSKYLDE-K(Hexadecanoyl-isoGlu)-RAKDFIEWLLS-OH] (H-H[Aib]QGTFTSDYSKYLDEK([γGlu-Palmitoyl])RAKDFIEWLLS-OH)
- AUC (% Ctrl) [2]: 61 % Ctrl
